Test results: patent US5359087A, “Bioactive quisqualic acid analogs” (Regents of the University of Minnesota, priority 1993, dated 1994)
Entries after “also recorded” stand apart in the source; their conditions may differ. Read-outs that look alike come from different tables or passages of the source.

Legend:
[1] = test system: CA1 neurons (rat hippocampal slices); assay: Inhibition of evoked synaptic field potential of CA1 neurons in hippocampal slices, before and after L-quisqualic acid exposure; type: cell-based, rat (male Sprague-Dawley); settings: for sensitization: fractional increase in potency after L-quisqualic acid (IC50 before vs after); for change in IC50 / sensitization after L-quisqualic acid: hippocampal slices after exposure to L-quisqualic acid; for decrease of IC50 values after exposure of the tissue to L-quisqualic acid: IC50 before vs after L-quisqualic acid; for stimulatory activity prior to treatment with L-quisqualic acid: prior to treatment of hippocampal slices with L-quisqualic acid
Method: The IC50 values for inhibition of the evoked synaptic field potential of CA1 neurons of analogs 2-5 were determined both before and after slices were exposed to L-quisqualic acid. Varying degrees of sensitization were observed as shown by the data on Table 2.
Potencies were determined before and after a 4minute exposure of slices t
16 μM Lquisqualic acid. Sensitization refers to the fractional increas
(§1) Transverse hippocampal slices were obtained from 30-100 day-old male Sprague-Dawley rats. Rats were anesthetized with urethane (1.5 g/kg ip) and then decapitated. The brain was removed and placed in ice-cold preparatory medium comprised of 124 mM NaCl, 3.3 mM KCl, 10 mM MgSO4, 0.5 mM CaCl2, 1.2 mM KH2 PO4, 10 mM glucose, and 26 mM NaHCO3 equilibrated with 95% O2 /5% CO2 (pH 7.4). The hippocampus was then isolated and sliced into 500-μm slices using a Campden Instruments VibroSlice microtome. Slices were submerged in preparatory medium at 28° C. which was aerated with 95% O2 /5% CO2 and incubated for 45 min. Slices were then transferred to recording medium comprised of 124 mM NaCl, 3.3 mM KCl, 2.4 mM MgSO4, 2.5 mM CaCl2, 1.2 mM KH2 PO4, 10 mM glucose, and 26 mM NaHCO3 aerated with 95% O2 /5% CO2 (pH 7.4) and incubated at 28° C. for at least 30 min. prior to use.
(§2) Slices were transferred to a small recording chamber containing the recording medium at 34° C. Initially, the upper surface of the slice was exposed to a humid atmosphere containing 95% O2 /5% CO2. Bipolar stimulation (0.1 ms, 10-40 V, 0.1 Hz) was delivered to the Schaffer collateral axons via a pair of Teflon-coated stainless steel wires (0.003 in.). […] The evoked extracellular synaptic field potentials were observed using a storage oscilloscope, and the peak amplitudes were sampled and recorded with a chart recorder. When a suitable field potential was obtained, the slice was submerged in oxygenated medium (34° C.) and the response allowed to stabilize. Test compounds were dissolved in oxygenated medium and were added and removed using a push/pull device allowing a complete change of medium within 30 sec.
Slices were exposed to L-AP4, L-quisqualic acid and the test compound in the following sequence, which is a modification of the previous method: (1) 200 μM L-AP4, (2) test compound, (3) 200 μM L-AP4, (4) 16 μM L-quisqualic acid, (5) 200 μM L-AP4, (6) test compound, (7) 200 μM L-AP4. Slices were washed between each addition of new drug until the peak amplitude of the field potential returned to its pretest level. Full concentration-response curves were determined for the test compound both before and after treatment of slices with L-quisqualic acid. In addition to determining the potency of compounds before and after addition of L-quisqualic acid, this protocol was designed to test for the ability of test compounds to induce the QUIS effect (and thus mimic the effects of L-quisqualic acid) and to test for the "preblocking" and "reversal" effects which have been previously observed only for L-homocysteine sulfinic acid, L-serine O-sulfate, and L-α-aminoadipic acid.
Concentration-response data were obtained by exposing the slice to a concentration of drug which was subthreshold for inhibition of the field potential. Drug concentration was doubled every 4 min until the response had either declined more than 70% or the bath concentration of the drug exceeded 10 mM. […] IC50 values were obtained. by plotting the fractional response remaining at the end of 4 min versus the log of the bath concentration of the drug. The concentration which produced a 50% inhibition of the peak amplitude (IC50) was interpolated from the graph. All reported IC50 values are the mean values for four or more experiments. The results are summarized on Table 2, above.

[2] = test system: QUIS effect in hippocampal slices (CA1 region); assay: Capability to induce, preblock and reverse the QUIS effect in hippocampal slices; type: cell-based, rat (male Sprague-Dawley); settings: sensitization of slices to depolarization by AP4
Method: L-Quisqualic acid analogs 2-5 were tested for their capability to induce, preblock and reverse the QUIS effect by the procedures disclosed in the examples hereinbelow. […] Thus, L-quisqualic acid remains the only compound known to induce the QUIS effect. In addition, none of the analogs were capable of preblocking or reversing the sensitization induced by L-quisqualic acid. […] While the precise details are unknown, an induction mechanism shown in FIG. 2, involving multiple sites of interaction such as this, would explain the apparent strict structural requirements for induction, reversal and preblocking of the QUIS effect.
as §1, §2
Slices were exposed to L-AP4, L-quisqualic acid and the test compound in the following sequence, which is a modification of the previous method: (1) 200 μM L-AP4, (2) test compound, (3) 200 μM L-AP4, (4) 16 μM L-quisqualic acid, (5) 200 μM L-AP4, (6) test compound, (7) 200 μM L-AP4. […] Full concentration-response curves were determined for the test compound both before and after treatment of slices with L-quisqualic acid. […]

[3] = biological target: AMPA/Quisqualate Excitatory Amino Acid Receptor; assay: [3H]AMPA radioligand receptor binding assay; settings: for % Inhibition of [3H]AMPA binding: compound concentration of 10^-5 M; for activity at the AMPA/quisqualate receptor: [3H]AMPA binding
Source text: The assay that was used was a radioligand receptor binding assay using [^3 H]α-amino-3-hydroxy-5-methylisoxazole-4-propionic acid ([^3 H]AMPA) as the radioligand [Murphy et al., Neurochemical Research, 12, 775 (1987)].
^a Percent inhibition of [^3 H]AMPA binding at a compound
concentration of 10^-5 M.

[4] = test system: CA1 neurons (rat hippocampal slices); settings: data from Ref. 14, cited from earlier work; for IC50: CA1 region; for sensitization: fractional increase in potency
[5] = test system: CA1 neurons in rat hippocampal slices; settings: cited from earlier work
[6] = test system: AMPA receptor; settings: cited from earlier work
[7] = test system: kainate receptor; settings: cited from earlier work
[8] = test system: metabotropic receptor; settings: cited from earlier work
[9] = test system: N-acetyl α-linked acidic dipeptidase; settings: hydrolyzes the brain dipeptide Ac-Asp-Glu-OH; cited from earlier work
[10] = test system: Ca^2+ /Cl^- -dependent glutamic acid uptake system; settings: brain synaptic plasma membrane preparations; cited from earlier work
[11] = test system: QUIS effect in CA1 neurons; settings: cited from earlier work; for reversal of the QUIS effect after it has been induced: CA1 neurons; for blocking (preblocking) of the QUIS effect: brief exposure of CA1 neurons, removed prior to L-quisqualic acid
[12] = Rattus norvegicus, Neuron, 4 min, CA1 region, after 4-minute exposure of slices to 16 μM L-quisqualic acid, read-out: IC50 Values ± SEM after quisqualic acid
[13] = Rattus norvegicus, Neuron, CA1 region of the hippocampus, before exposure to L-quisqualic acid, mean of four or more experiments, read-out: IC50 Values ± SEM before quisqualic acid
[14] = after 4-minute exposure to 16 μM L-quisqualic acid, read-out: IC50 Values after quisqualic acid
[15] = before L-quisqualic acid, read-out: IC50 Values before quisqualic acid

Compound: N[C@H](Cn1oc(=O)[nH]c1=O)C(=O)O [D-quisqualic acid, reference compound]
- IC50 ([1]; Rattus norvegicus, Neuron, 4 min, read-out: IC50 Values ± SEM after quisqualic acid): 10 ± 1.7 µM
- IC50 ([1]; Rattus norvegicus, Neuron, read-out: IC50 Values ± SEM before quisqualic acid): 78 ± 8.5 µM
- sensitization [1]: 7.5
- change in IC50 / sensitization after L-quisqualic acid [1]: slices become sensitized

Compound: N[C@@H](CC1=CC(=O)N(CC(=O)O)C1=O)C(=O)O [Compound 4, (S)-2,5-Dihydro-2,5-dioxo-α-amino-1-(carboxymethyl)pyrrole-3-propanoic Acid]
- decrease of IC50 values after exposure of the tissue to L-quisqualic acid [1]: more than 7 fold
- IC50 [1, 12]: 375 ± 75 µM
- IC50 [1, 13]: 2900 ± 320 µM
- sensitization [1]: 7.7
- change in IC50 / sensitization after L-quisqualic acid [1]: the slices are sensitized to depolarization by these compounds following exposure to L-quisqualic acid; also recorded: first non-phosphorus compounds to which hippocampal slices are known to become sensitized
- induction of the QUIS effect [2]: do not induce the QUIS effect

Compound: N[C@@H](CC1=CC(=O)NC1=O)C(=O)O [Compound 2, (S)-2,5-Dihydro-2,5-dioxo-α-amino-1H-pyrrole-3-propanoic Acid]
- IC50 [1, 12]: 9.5 ± 2.5 µM
- IC50 [1, 13]: 21 ± 4.4 µM
- sensitization [1]: 2.2
- stimulatory activity prior to treatment with L-quisqualic acid [1]: high stimulatory activity
- Ki ([3]; [3H]AMPA radioligand): 0.37 µM
- % Inhibition of [3H]AMPA binding [3]: 93.5%

Compound: CN1C(=O)C=C(C[C@H](N)C(=O)O)C1=O [Compound 3, (S)-2,5-Dihydro-2,5-dioxo-α-amino-1-methylpyrrole-3-propanoic Acid]
- decrease of IC50 values after exposure of the tissue to L-quisqualic acid [1]: more than 7 fold
- IC50 [1, 12]: 6.8 ± 2.3 µM
- IC50 [1, 13]: 95 ± 19 µM
- sensitization [1]: 14.0
- change in IC50 / sensitization after L-quisqualic acid [1]: the slices are sensitized to depolarization by these compounds following exposure to L-quisqualic acid; also recorded: first non-phosphorus compounds to which hippocampal slices are known to become sensitized
- induction of the QUIS effect [2]: do not induce the QUIS effect
- % Inhibition of [3H]AMPA binding [3]: 1.1%

Compound: N[C@@H](CC1CC(=O)NC1=O)C(=O)O (mixture of isomers) [Compound 5A, 2,5-Dioxo-α(S)-amino-3(RS)-pyrrolidinepropanoic Acid]
- IC50 [1, 12]: > 10000 µM
- IC50 [1, 13]: > 10000 µM
- change in IC50 / sensitization after L-quisqualic acid [1]: No significant change in IC50 values
- activity at the AMPA/quisqualate receptor [3]: active at the AMPA/quisqualate receptor
- % Inhibition of [3H]AMPA binding [3]: 55.5%

Compound: N[C@@H](CCP(=O)(O)O)C(=O)O [L-AP4, L-2-amino-4-phosphonobutanoic acid]
- IC50 [4, 14]: 55 µM
- IC50 [4, 15]: 1800 µM
- sensitization [4]: 33

Compound: N[C@@H](Cn1oc(=O)[nH]c1=O)C(=O)O [L-quisqualic acid, L-Quisqualic acid]
- sensitization of CA1 neurons to depolarization by D- or L-AP4 and related phosphonates [5]: 30-100 fold
- induction of the QUIS effect [2]: only L-quisqualic acid sensitized slices to depolarization by AP4
- affinity for the AMPA receptor [6]: high affinity
- IC50 [4, 14]: 2.9 µM
- IC50 [4, 15]: 3.9 µM
- sensitization [4]: 1.3
- affinity for the kainate receptor [7]: high affinity
- affinity for the metabotropic receptor [8]: high affinity
- inhibition of N-acetyl α-linked acidic dipeptidase [9]: inhibits
- inhibition of Ca2+/Cl- -dependent glutamic acid uptake system [10]: inhibits

Compound: N[C@@H](CC1CC(=O)NC1=O)C(=O)O (mixture of isomers) [Compound 5B, 2,5-Dioxo-α(S)-amino-3(RS)-pyrrolidinepropanoic Acid]
- IC50 ([1]; CA1 region of the hippocampus, before exposure to L-quisqualic acid, mean of four or more experiments, read-out: IC50 Values ± SEM before quisqualic acid): 9200 ± 1100 µM
- IC50 ([1]; CA1 region, after 4-minute exposure of slices to 16 μM L-quisqualic acid, read-out: IC50 Values ± SEM after quisqualic acid): 6800 ± 930 µM
- sensitization [1]: 1.3
- change in IC50 / sensitization after L-quisqualic acid [1]: No significant change in IC50 values
- activity at the AMPA/quisqualate receptor [3]: active at the AMPA/quisqualate receptor

Compound: N[C@H](CCP(=O)(O)O)C(=O)O [D-AP4, D-2-amino-4-phosphonobutanoic acid]
- IC50 [4, 14]: 152 µM
- IC50 [4, 15]: 2600 µM
- sensitization [4]: 17

Compound: N[C@@H](COS(=O)(=O)O)C(=O)O [L-serine O-sulfate]
- reversal of the QUIS effect after it has been induced [11]: capable of reversing the QUIS effect
- blocking (preblocking) of the QUIS effect [11]: the QUIS effect can be blocked

Compound: N[C@@H](CCS(=O)O)C(=O)O [L-homocysteinesulfinic acid]
- reversal of the QUIS effect after it has been induced [11]: capable of reversing the QUIS effect
- blocking (preblocking) of the QUIS effect [11]: the QUIS effect can be blocked

Compound: N[C@@H](CCCC(=O)O)C(=O)O [L-α-aminoadipic acid]
- reversal of the QUIS effect after it has been induced [11]: capable of reversing the QUIS effect
- blocking (preblocking) of the QUIS effect [11]: the QUIS effect can be blocked

Compound: N[C@@H](CN1CC(=O)NC1=O)C(=O)O [Compound 6]
- IC50 [1, 12]: 0.8 ± 0.26 µM
- IC50 [1, 13]: 1.4 ± 0.6 µM
- IC50 ([1]; Rattus norvegicus, Neuron, CA1 region of the rat hippocampus, read-out: IC50, stimulatory effect on CA1 region of the rat hippocampus): 1.4 ± 0.6 µM
- sensitization [1]: 1.7
- stimulatory activity prior to treatment with L-quisqualic acid [1]: high stimulatory activity
- induction of the QUIS effect [2]: did not exhibit the QUIS effect
